Source: paper PMC5677254, “Design, Synthesis, and Characterization of N-Oxide-Containing Heterocycles with in Vivo Sterilizing Antitubercular Activity” (Journal of Medicinal Chemistry, 2017)
Converted amounts (≈) assume the structure as drawn.

How the values were obtained:
[1] = test system: Mtb H37Rv (ATCC 27294); test: Resazurin microtiter assay (REMA), MIC90 against bacteria in active state; format: cell-based; conditions: Mycobacterium tuberculosis, actively replicating M. tuberculosis H37Rv, REMA; for MIC90: read-out: MIC90
[2] = Cytotoxicity against MRC-5 cell line; conditions: human, cytotoxicity IC50, MRC-5 cell line

Structure (SMILES)	MIC90 [1] [µg/mL]	IC50 [2] [µg/mL]	MIC [1] [µg/mL]
O=C(N/N=C/c1ccc2no[n+]([O-])c2c1)c1ccccc1 [Compound 9, (E)-6-((2-Benzoylhydrazono)methyl)benzo[c][1,2,5]oxadiazole 1-Oxide]	2.4 (≈ 8.5 µM)	36.8 (≈ 130 µM)	
N#Cc1c(-c2ccccc2)[n+]([O-])c2ccc(C3OCCO3)cc2[n+]1[O-] [Compound 19]	10.3 (≈ 30.7 µM)	10.7 (≈ 31.9 µM)	
O=C(N/N=C/c1ccc2no[n+]([O-])c2c1)c1ccccc1O [Compound 12, (E)-6-((2-(2-Hydroxybenzoyl)hydrazono)methyl)benzo[c][1,2,5]oxadiazole 1-Oxide]			16.4 (≈ 55 µM)
N#Cc1c(-c2cccs2)[n+]([O-])c2ccc(C3OCCO3)cc2[n+]1[O-] [Compound 26, 3-Cyano-6-(1,3-dioxolan-2-yl)-2-(thiophen-2-yl)quinoxaline 1,4-Dioxide]	4.1 (≈ 12 µM)	5.9 (≈ 17.3 µM)	
N#Cc1c(-c2ccc(Cl)cc2)[n+]([O-])c2ccc(C3OCCO3)cc2[n+]1[O-] [Compound 21, 2-(4-Chlorophenyl)-3-cyano-6-(1,3-dioxolan-2-yl)quinoxaline 1,4-Dioxide]	6.4 (≈ 17.3 µM)	5 (≈ 13.5 µM)	
Nc1ccccc1C(=O)N/N=C/c1ccc2no[n+]([O-])c2c1 [Compound 15, (E)-6-((2-(2-Aminobenzoyl)hydrazono)methyl)benzo[c][1,2,5]oxadiazole 1-Oxide]	3.7 (≈ 12.4 µM)	36.4 (≈ 122 µM)	
Cc1ccc(-c2c(C#N)[n+]([O-])c3cc(C4OCCO4)ccc3[n+]2[O-])cc1 [Compound 20, 3-Cyano-6-(1,3-dioxolan-2-yl)-2-(p-tolyl)quinoxaline 1,4-Dioxide]	5.7 (≈ 16.3 µM)	6.2 (≈ 17.7 µM)	
Nc1cccc(C(=O)N/N=C/c2ccc3no[n+]([O-])c3c2)c1 [Compound 16, (E)-6-((2-(3-Aminobenzoyl)hydrazono)methyl)benzo[c][1,2,5]oxadiazole 1-Oxide]	5.3 (≈ 17.8 µM)	24.4 (≈ 82.1 µM)	
N#Cc1c(-c2ccco2)[n+]([O-])c2ccc(C3OCCO3)cc2[n+]1[O-] [Compound 25, 3-Cyano-6-(1,3-dioxolan-2-yl)-2-(furan-2-yl)quinoxaline 1,4-Dioxide]	1.7 (≈ 5.23 µM)	11.6 (≈ 35.7 µM)	
CC(C)(C)c1ccc(C(=O)N/N=C/c2ccc3no[n+]([O-])c3c2)cc1 [Compound 10, (E)-6-((2-(4-(tert-Butyl)benzoyl)hydrazono)methyl)benzo[c][1,2,5]oxadiazole 1-Oxide]	1.3 (≈ 3.84 µM)	8.5 (≈ 25.1 µM)	
N#Cc1c(-c2ccc(F)cc2)[n+]([O-])c2ccc(C3OCCO3)cc2[n+]1[O-] [Compound 23, 3-Cyano-6-(1,3-dioxolan-2-yl)-2-(4-fluorophenyl)quinoxaline 1,4-Dioxide]	8.6 (≈ 24.3 µM)	7.7 (≈ 21.8 µM)	
O=C(N/N=C/c1ccc2no[n+]([O-])c2c1)c1cccc(O)c1 [Compound 13, (E)-6-((2-(3-Hydroxybenzoyl)hydrazono)methyl)benzo[c][1,2,5]oxadiazole 1-Oxide]	> 25		
N#Cc1c(-c2ccccc2)[n+]([O-])c2ccc(/C=N/NC(=O)c3ccncc3)cc2[n+]1[O-] [Compound 28]	16.3 (≈ 39.7 µM)	8.6 (≈ 21 µM)	
COc1ccc(-c2c(C#N)[n+]([O-])c3cc(C4OCCO4)ccc3[n+]2[O-])cc1 [Compound 22, 3-Cyano-6-(1,3-dioxolan-2-yl)-2-(4-methoxyphenyl)quinoxaline 1,4-Dioxide]	4.4 (≈ 12 µM)	5.5 (≈ 15.1 µM)	
N#Cc1c(-c2ccc(OC(F)(F)F)cc2)[n+]([O-])c2ccc(C3OCCO3)cc2[n+]1[O-] [Compound 24, 3-Cyano-6-(1,3-dioxolan-2-yl)-2-(4-(trifluoromethoxy)phenyl)quinoxaline 1,4-Dioxide]	6.5 (≈ 15.5 µM)	28 (≈ 66.8 µM)	
NNC(=O)c1ccncc1 [isoniazid, reference compound]	0.014 (≈ 0.102 µM)		
